Reference: US8865756B2, “Inhibitors of HCV NS5A” (Presidio Pharmaceuticals, Inc., priority 2008, dated 2014)

What follows are compounds tested on HCV 1b_Huh-Luc/Neo-ET cell line persistently expressing a bicistronic genotype 1b replicon in Huh 7 cells (assay: HCV replicon assay (luciferase readout)). Conditions: Hepatitis C virus, Huh-7, 72 h, read-out: Inhibition of HCV genotype 1b.
Format: cell-based
Outline: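 Huh 7 cells carrying a genotype 1b luciferase/neo replicon treated in triplicate for 72 h, then luciferase activity measured. Signal expressed as % of control; EC50 from four-parameter logistic fit, determined several times.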

| SMILES | EC50 |
| --- | --- |
| COC(=O)N[C@@H](C(=O)N1CCC[C@H]1c1ncc(-c2ccc(C#Cc3ccc(-c4cnc([C@@H]5CCCN5C(=O)[C@H](NC(=O)[C@H]5CCCN5C)c5ccccc5)[nH]4)cc3)cc2)[nH]1)c1ccccc1 [Compound 204] | < 1 nM |
| O=C([C@@H](c1ccccc1)N1CCCCC1)N1CCC[C@H]1c1ncc(-c2ccc(C#Cc3ccc(-c4cnc([C@@H]5CCCN5C(=O)[C@@H](c5ccccc5)N5CCCCC5)[nH]4)cc3)cc2)[nH]1 [Compound 205] | < 1 nM |
| COC(=O)N[C@@H](C(=O)N1CCC[C@H]1c1ncc(-c2ccc(C#Cc3ccc(-c4cnc([C@@H]5CCCN5C(=O)[C@H](NC(=O)[C@@H]5CCCN5)c5ccccc5)[nH]4)cc3)cc2)[nH]1)c1ccccc1 [Compound 206] | < 1 nM |
| COC(=O)N[C@@H](C(=O)N1CCC[C@H]1c1ncc(-c2ccc(C#Cc3ccc(-c4cnc([C@@H]5CCCN5C(=O)[C@H](NC(=O)[C@H]5CCCN5)c5ccccc5)[nH]4)cc3)cc2)[nH]1)c1ccccc1 [Compound 207] | < 1 nM |
| O=C(N[C@@H](C(=O)N1CCC[C@H]1c1ncc(-c2ccc(C#Cc3ccc(-c4cnc([C@@H]5CCCN5C(=O)[C@@H](c5ccccc5)N5CCCCC5)[nH]4)cc3)cc2)[nH]1)c1ccccc1)C1CC1 [Compound 208] | < 1 nM |
| O=C(N[C@@H](C(=O)N1CCC[C@H]1c1ncc(-c2ccc(C#Cc3ccc(-c4cnc([C@@H]5CCCN5C(=O)[C@@H](c5ccccc5)N5CCCCC5)[nH]4)cc3)cc2)[nH]1)c1ccccc1)N1CCOCC1 [Compound 209] | < 1 nM |
| CC(C)(C)OC(=O)N[C@@H](C(=O)N1CCC[C@H]1c1cc(-c2ccc(C#Cc3ccc(-c4cnc([C@@H]5CCCN5C(=O)[C@H](NC(=O)OC(C)(C)C)c5ccccc5)[nH]4)cc3)cc2)n[nH]1)c1ccccc1 [Compound 210] | < 1 nM |
| COC(=O)N[C@@H](C(=O)N1CCC[C@H]1CNC(=O)c1ccc(C#Cc2ccc(-c3cnc([C@@H]4CCCN4C(=O)[C@H](NC(=O)OC)c4ccccc4)[nH]3)cc2)cc1)c1ccccc1 [Compound 211] | < 1 nM |
| O=C(N[C@@H](C(=O)N1CCC[C@H]1c1cc(-c2ccc(C#Cc3ccc(-c4cnc([C@@H]5CCCN5C(=O)[C@H](NC(=O)C5CC5)c5ccccc5)[nH]4)cc3)cc2)n[nH]1)c1ccccc1)C1CC1 [Compound 212] | < 1 nM |
| CN1CCN(C(=O)N[C@@H](C(=O)N2CCC[C@H]2c2cc(-c3ccc(C#Cc4ccc(-c5cnc([C@@H]6CCCN6C(=O)[C@H](NC(=O)N6CCN(C)CC6)c6ccccc6)[nH]5)cc4)cc3)n[nH]2)c2ccccc2)CC1 [Compound 213] | < 1 nM |
| O=C(N[C@@H](C(=O)N1CCC[C@H]1c1cc(-c2ccc(C#Cc3ccc(-c4cnc([C@@H]5CCCN5C(=O)[C@H](NC(=O)[C@@H]5CCCO5)c5ccccc5)[nH]4)cc3)cc2)n[nH]1)c1ccccc1)[C@@H]1CCCO1 [Compound 214] | < 1 nM |
| CN(C)[C@@H](C(=O)N1CCC[C@H]1c1ncc(-c2ccc(C#Cc3ccc(-c4cnc([C@@H]5CCCN5C(=O)[C@H](NC(=O)C5CC5)c5ccccc5)[nH]4)cc3)cc2)[nH]1)c1ccccc1 [Compound 215] | < 1 nM |
| CN1CCC[C@@H]1C(=O)N[C@@H](C(=O)N1CCC[C@H]1c1ncc(-c2ccc(C#Cc3ccc(-c4cnc([C@@H]5CCCN5C(=O)[C@H](NC(=O)C5CC5)c5ccccc5)[nH]4)cc3)cc2)[nH]1)c1ccccc1 [Compound 216] | < 1 nM |
| O=C(N[C@@H](C(=O)N1CCC[C@H]1c1ncc(-c2ccc(C#Cc3ccc(-c4cnc([C@@H]5CCCN5C(=O)[C@@H](c5ccccc5)N5CCCC5)[nH]4)cc3)cc2)[nH]1)c1ccccc1)C1CC1 [Compound 217] | < 1 nM |
| COC(=O)N[C@@H](C(=O)N1CCC[C@H]1c1ncc(-c2ccc(C#Cc3ccc(-c4cnc([C@@H]5CCCN5C(=O)[C@H](NC(=O)C5CC5)c5ccccc5)[nH]4)cc3)cc2)[nH]1)c1ccccc1 [Compound 218] | < 1 nM |
| COC(=O)N[C@@H](C(=O)N1CCC[C@H]1c1cc(-c2ccc(C#Cc3ccc(-c4cnc([C@@H]5CCCN5C(=O)[C@H](NC(=O)OC)c5ccccc5)[nH]4)cc3)cc2)n[nH]1)c1ccccc1 [Compound 219] | < 1 nM |
| O=C(N[C@@H](C(=O)N1CCC[C@H]1c1cc(-c2ccc(C#Cc3ccc(-c4cnc([C@@H]5CCCN5C(=O)[C@H](NC(=O)N5CCOCC5)c5ccccc5)[nH]4)cc3)cc2)n[nH]1)c1ccccc1)N1CCOCC1 [Compound 220] | < 1 nM |
| CN(C)C(=O)N[C@@H](C(=O)N1CCC[C@H]1c1cc(-c2ccc(C#Cc3ccc(-c4cnc([C@@H]5CCCN5C(=O)[C@H](NC(=O)N(C)C)c5ccccc5)[nH]4)cc3)cc2)n[nH]1)c1ccccc1 [Compound 221] | < 1 nM |
| O=C(Cc1cccnc1)N[C@@H](C(=O)N1CCC[C@H]1c1cc(-c2ccc(C#Cc3ccc(-c4cnc([C@@H]5CCCN5C(=O)[C@H](NC(=O)Cc5cccnc5)c5ccccc5)[nH]4)cc3)cc2)n[nH]1)c1ccccc1 [Compound 222] | < 1 nM |
| COC(=O)N[C@@H](C(=O)N1CCC[C@H]1c1ncc(-c2ccc(C#Cc3ccc(-c4cnc([C@@H]5CCCN5C(=O)[C@H](NC(=O)N5CCOCC5)c5ccccc5)[nH]4)cc3)cc2)[nH]1)c1ccccc1 [Compound 224] | < 1 nM |

| SMILES | EC50 |
| --- | --- |
| COC(=O)N[C@@H](C(=O)N1CCC[C@H]1c1ncc(-c2ccc(C#Cc3ccc(-c4cnc([C@@H]5CCCN5C(=O)[C@H](NS(C)(=O)=O)c5ccccc5)[nH]4)cc3)cc2)[nH]1)c1ccccc1 [Compound 225] | < 1 nM |
| CS(=O)(=O)N[C@@H](C(=O)N1CCC[C@H]1c1ncc(-c2ccc(C#Cc3ccc(-c4cnc([C@@H]5CCCN5C(=O)[C@H](NS(C)(=O)=O)c5ccccc5)[nH]4)cc3)cc2)[nH]1)c1ccccc1 [Compound 226] | < 1 nM |
| CC(C)OC(=O)N[C@@H](C(=O)N1CCC[C@H]1c1ncc(-c2ccc(C#Cc3ccc(-c4cnc([C@@H]5CCCN5C(=O)[C@H](NC(=O)OC(C)C)c5ccccc5)[nH]4)cc3)cc2)[nH]1)c1ccccc1 [Compound 227] | < 1 nM |
| CN(C)[C@@H](C(=O)N1CCC[C@H]1c1ncc(-c2ccc(C#Cc3ccc(-c4cnc([C@@H]5CCCN5C(=O)[C@H](NS(C)(=O)=O)c5ccccc5)[nH]4)cc3)cc2)[nH]1)c1ccccc1 [Compound 228] | < 1 nM |
| CCN(CC)[C@@H](C(=O)N1CCC[C@H]1c1ncc(-c2ccc(C#Cc3ccc(-c4cnc([C@@H]5CCCN5C(=O)[C@H](NS(C)(=O)=O)c5ccccc5)[nH]4)cc3)cc2)[nH]1)c1ccccc1 [Compound 229] | < 1 nM |
| CS(=O)(=O)N[C@@H](C(=O)N1CCC[C@H]1c1ncc(-c2ccc(C#Cc3ccc(-c4cnc([C@@H]5CCCN5C(=O)[C@@H](c5ccccc5)N5CCCC5)[nH]4)cc3)cc2)[nH]1)c1ccccc1 [Compound 230] | < 1 nM |
| CS(=O)(=O)N[C@@H](C(=O)N1CCC[C@H]1c1ncc(-c2ccc(C#Cc3ccc(-c4cnc([C@@H]5CCCN5C(=O)[C@@H](c5ccccc5)N5CCCCC5)[nH]4)cc3)cc2)[nH]1)c1ccccc1 [Compound 231] | < 1 nM |
| CS(=O)(=O)N[C@@H](C(=O)N1CCC[C@H]1c1ncc(-c2ccc(C#Cc3ccc(-c4cnc([C@@H]5CCCN5C(=O)[C@@H](c5ccccc5)N5CCOCC5)[nH]4)cc3)cc2)[nH]1)c1ccccc1 [Compound 232] | < 1 nM |
| COC(=O)N[C@@H](C(=O)N1CCC[C@H]1c1ncc(-c2ccc(C#Cc3ccc(C(=O)NC[C@@H]4CCCN4C(=O)[C@@H](c4ccccc4)N4CCCCC4)cc3)cc2)[nH]1)c1ccccc1 [Compound 233] | < 1 nM |
| COC(=O)N[C@@H](C(=O)N1CCC[C@H]1c1ncc(-c2ccc(C#Cc3ccc(C(=O)NC[C@@H]4CCCN4C(=O)[C@@H](c4ccccc4)N(C)C)cc3)cc2)[nH]1)c1ccccc1 [Compound 234] | < 1 nM |
| COC(=O)N[C@@H](C(=O)N1CCC[C@H]1c1ncc(-c2ccc(C#Cc3ccc(C(=O)NC[C@@H]4CCCN4C(=O)[C@H](NC(=O)N4CCOCC4)c4ccccc4)cc3)cc2)[nH]1)c1ccccc1 [Compound 235] | < 1 nM |
| COC(=O)N[C@@H](C(=O)N1CCC[C@H]1c1ncc(-c2ccc(C#Cc3ccc(C(=O)NC[C@@H]4CCCN4C(=O)[C@H](NC(=O)N4CCN(C)CC4)c4ccccc4)cc3)cc2)[nH]1)c1ccccc1 [Compound 236] | < 1 nM |
| O=C(N[C@@H](C(=O)N1CCC[C@H]1c1ncc(-c2ccc(C#Cc3ccc(-c4cnc([C@@H]5CCCN5C(=O)[C@@H](c5ccccc5)N5CCOCC5)[nH]4)cc3)cc2)[nH]1)c1ccccc1)C1CC1 [Compound 237] | < 1 nM |
| CN1CCN(C(=O)N[C@@H](C(=O)N2CCC[C@H]2c2ncc(-c3ccc(C#Cc4ccc(-c5cnc([C@@H]6CCCN6C(=O)[C@H](NC(=O)C6CC6)c6ccccc6)[nH]5)cc4)cc3)[nH]2)c2ccccc2)CC1 [Compound 238] | < 1 nM |
| COC(=O)N[C@@H](C(=O)N1CCC[C@H]1c1ncc(-c2ccc(C#Cc3ccc(-c4cnc([C@@H]5CCCN5C(=O)[C@H](NC(=O)N5CCN(C)CC5)c5ccccc5)[nH]4)cc3)cc2)[nH]1)c1ccccc1 [Compound 240] | < 1 nM |
| COC(=O)N[C@@H](C(=O)N1CCC[C@H]1c1ncc(-c2ccc(C#Cc3ccc(-c4cnc([C@@H]5CCCN5C(=O)[C@H](NC(=O)N5CCC(O)CC5)c5ccccc5)[nH]4)cc3)cc2)[nH]1)c1ccccc1 [Compound 241] | < 1 nM |
| COC(=O)N[C@@H](C(=O)N1CCC[C@H]1c1ncc(-c2ccc(C#Cc3ccc(-c4cnc([C@@H]5CCCN5C(=O)[C@H](NC(=O)N5CCCCC5)c5ccccc5)[nH]4)cc3)cc2)[nH]1)c1ccccc1 [Compound 242] | < 1 nM |
| COC(=O)N[C@@H](C(=O)N1CCC[C@H]1c1ncc(-c2ccc(C#Cc3ccc(-c4cnc([C@@H]5CCCN5C(=O)[C@H](NC(=O)N5CCCC5)c5ccccc5)[nH]4)cc3)cc2)[nH]1)c1ccccc1 [Compound 243] | < 1 nM |
| CCOC(=O)N[C@@H](C(=O)N1CCC[C@H]1c1ncc(-c2ccc(C#Cc3ccc(-c4cnc([C@@H]5CCCN5C(=O)[C@H](NC(=O)OCC)c5ccccc5)[nH]4)cc3)cc2)[nH]1)c1ccccc1 [Compound 244] | < 1 nM |
| O=C(N[C@@H](C(=O)N1CCC[C@H]1c1ncc(-c2ccc(C#Cc3ccc(-c4cnc([C@@H]5CCCN5C(=O)[C@H](NC(=O)N5CC[C@H](O)C5)c5ccccc5)[nH]4)cc3)cc2)[nH]1)c1ccccc1)N1CC[C@H](O)C1 [Compound 245] | < 1 nM |
